Tests used:
[1] = target: T1, GST-tagged Tankyrase-2 (873-1166 aa) (Homo sapiens, UniProt Q9H2K2); assay: Tankyrase 2 autoparsylation HTRF enzyme assay; format: biochemical; details: HTRF autoparsylation, 90 min at 30° C; read-out: IC50 TNKS2 enzyme assay
T1 construct: GST-tagged Tankyrase-2 (873-1166 aa)
Protocol: (§1) Biochemical Activity Testing of Tankyrase 1 and 2: Autoparsylation Assay
(§2) The autoparsylation assay is run in two steps: the enzymatic reaction in which GST-tagged Tankyrase-1, resp Tankyrase-2 transferred biotinylated ADP-ribose to itself from biotinylated NAD as co-substrate and the detection reaction where a time resolved FRET between cryptate labelled anti-GST bound to the GST tag of the enzyme and Xlent® labelled-streptavidin bound the biotin-parsylation residue is analysed. The autoparsylation activity was detectable directly via the increase in HTRF signal.
(§3) The autoparsylation assay is performed as 384-well HTRF® (Cisbio, Codolet, France) assay format in Greiner low volume nb 384-well microtiter plates and is used for high throughput screen. 250 nM GST-tagged Tankyrase-1 (1023-1327 aa), respectively about 250 nM GST-tagged Tankyrase-2 (873-1166 aa) and 5 μM bio-NAD (Biolog, Life science Inst., Bremen, Germany) as co-substrate are incubated in a total volume of 5 μl (50 mM HEPES, 4 mM Mg-chloride, 0.05% Pluronic F-68, 1.4 mM DTT, 0.5% DMSO, pH 7.7) in the absence or presence of the test compound (10 dilution concentrations) for 90 min at 30° C. The reaction is stopped by the addition of 1 μl 50 mM EDTA solution. 2 μl of the detection solution (1.6 μM SA-Xlent® (Cisbio, Codolet, France), 7.4 nM Anti-GST-K® (Eu-labelled anti-GST, Cisbio, Codolet, France) in 50 mM HEPES, 800 mM KF, 0.1° A. BSA, 20 mM EDTA, 0.1% CHAPS, pH 7.0) are added. After 1 h incubation at room temperature the HTRF is measured with an Envision multimode reader (Perkin Elmer LAS Germany GmbH) at excitation wavelength 340 nm (laser mode) and emission wavelengths 615 nm and 665 nm. The ratio of the emission signals is determined. The full value used is the inhibitor-free reaction. The pharmacological zero value used is XAV-939 (Tocris) in a final concentration of 5 μM. The inhibitory values (IC50) are determined using either the program Symyx Assay Explorer® or Condosseo® from GeneData.

[2] = target: T2, GST-tagged Tnks-2 (873-1166 aa) (Homo sapiens, UniProt Q9H2K2); assay: TNKS2 activity ELISA (autoparsylation); format: biochemical; details: activity ELISA, 1 hour at 30° C; read-out: IC50 TNKS2 ELISA
T2 construct: GST-tagged Tnks-2 (873-1166 aa, prepared in-house); made in house
T2 sequence (Q9H2K2 873-1166): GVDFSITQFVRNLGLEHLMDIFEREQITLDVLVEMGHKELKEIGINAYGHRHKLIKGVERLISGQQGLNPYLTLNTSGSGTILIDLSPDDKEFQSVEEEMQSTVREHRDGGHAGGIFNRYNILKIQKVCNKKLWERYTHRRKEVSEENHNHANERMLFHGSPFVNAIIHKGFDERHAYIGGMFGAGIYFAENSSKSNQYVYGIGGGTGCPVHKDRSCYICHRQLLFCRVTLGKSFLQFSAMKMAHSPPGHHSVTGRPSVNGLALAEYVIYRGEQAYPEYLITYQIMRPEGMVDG
Protocol: (§4) Description of the TNKS1 and TNKS2 ELISA Assay
(§5) Biochemical Activity Testing of TNKS 1 and 2: Activity ELISA (Autoparsylation Assay)
(§6) For analysis of autoparsylation activity of TNKS 1 and 2 an activity ELISA is performed: In the first step GST tagged TNKS is captured on a Glutathione coated plate. Then the activity assay with biotinylated NAD is performed in the absence/presence of the compounds. During the enzymatic reaction GST tagged TNKS transfers biotinylated ADP-ribose to itself from biotinylated NAD as co-substrate. For the detection streptavidin-HRP conjugate is added that binds to the biotinylated TNKS and is thereby captured to the plates. The amount of biotinylated resp. autoparsylated TNKS is detected with a luminescence substrate for HRP. The level of the luminescence signal correlates directly with the amount of autoparsylated TNKS and therefore with activity of TNKS.
(§7) The activity ELISA is performed in 384 well Glutathione coated microtiter plates (Express capture Glutathione coated plate, Biocat, Heidelberg, Germany). The plates are pre-equilibrated with PBS. Then the plates are incubated with 50 μl 20 ng/well GST-tagged Tnks-1 (1023-1327 aa, prepared in-house), respectively GST-tagged Tnks-2 (873-1166 aa, prepared in-house) in assay buffer (50 mM HEPES, 4 mM Mg-chloride, 0.05% Pluronic F-68, 2 mM DTT, pH 7.7) overnight at 4° C. The plates are washed 3 times with PBS-Tween-20. The wells are blocked by incubation at room temperature for 20 minutes with 50 μl blocking buffer (PBS, 0.05% Tween-20, 0.5% BSA). Afterwards the plates are washed 3 times with PBS-Tween-20. The enzymatic reaction is performed in 50 μl reaction solution (50 mM HEPES, 4 mM Mg-chloride, 0.05% Pluronic F-68, 1.4 mM DTT, 0.5% DMSO, pH 7.7) with 10 μM bio-NAD (Biolog, Life science Inst., Bremen, Germany) as co-substrate in the absence or presence of the test compound (10 dilution concentrations) for 1 hour at 30° C. The reaction is stopped by 3 times washing with PBS-Tween-20. For the detection 50 μl of 20 ng/μl Streptavidin, HRP conjugate (MoBiTec, Göttingen, Germany) in PBS/0.05% Tween-20/0.01% BSA are added and the plates are incubated for 30 minutes at room temperature. After three times washing with PBS-Tween-20 50 μl of SuperSignal ELISA Femto Maximum sensitivity substrate solution (ThermoFisherScientific (Pierce), Bonn, Germany) are added. Following a 1 minute incubation at room temperature luminescence signals are measured with an Envision multimode reader (Perkin Elmer LAS Germany GmbH) at 700 nm. The full value used is the inhibitor-free reaction. The pharmacological zero value used is XAV-939 (Tocris) in a final concentration of 5 μM. The inhibitory values (IC50) are determined using either the program Symyx Assay Explorer® or Condosseo® from GeneData.

[3] = test system: Tankyrase (Axin2 level in DLD1 cells); assay: Cellular inhibition of Tankyrase, Axin2 Luminex assay in DLD1 cells; format: cell-based; details: Homo sapiens, DLD-1, 24 hours, Axin2 level increase, read-out: IC50 Cell assay
Protocol: Measurement of Cellular Inhibition of Tankyrase
Since Tankyrases have been described to modulate cellular level of Axin2 (Huang et al., 2009; Nature) the increase of Axin2 level is used as read-out for determination of cellular inhibition of Tankyrases in a Luminex based assay.
Cells of the colon carcinoma cell line DLD1 are plated in 96 well plates with 1.5×10^4 cells per well. Next day, cells are treated with a serial dilution of test compound in seven steps as triplicates with a final DMSO concentration of 0.3%. After 24 hours, cells are lysed in lysis buffer (20 mM Tris/HCl pH 8.0, 150 mM NaCl, 1% NP40, 10% Glycerol) and lysates are cleared by centrifugation through a 96 well filter plate (0.65 μm). Axin2 protein is isolated from cell lysates by incubation with a monoclonal anti-Axin2 antibody (R&D Systems #MAB6078) that is bound to fluorescent carboxybeads. Then, bound Axin2 is specifically detected with a polyclonal anti-Axin2 antibody (Cell Signaling #2151) and an appropriate PE-fluorescent secondary antibody. The amount of isolated Axin2 protein is determined in a Luminex^200 machine (Luminex Corporation) according to the manufacturer's instruction by counting 100 events per well. Inhibition of Tankyrase by test compounds results in higher levels of Axin2 which directly correlates with an increase of detectable fluorescence. As controls cells are treated with solvent alone (neutral control) and with a Tankyrase reference inhibitor IWR-2 (3E-06 M) which refers as control for maximum increase of Axin2. For analysis, the obtained data are normalized against the untreated solvent control and fitted for determination of the EC50 values using the Assay Explorer software (Accelrys).

[4] = target: T3, GST-tagged Tankyrase-1 (1023-1327 aa) (Homo sapiens, UniProt O95271); assay: Tankyrase 1 autoparsylation HTRF enzyme assay; format: biochemical; details: HTRF autoparsylation, 90 min at 30° C; read-out: IC50 TNKS1 enzyme assay
T3 construct: GST-tagged Tankyrase-1 (1023-1327 aa)
T3 sequence (O95271 1023-1327): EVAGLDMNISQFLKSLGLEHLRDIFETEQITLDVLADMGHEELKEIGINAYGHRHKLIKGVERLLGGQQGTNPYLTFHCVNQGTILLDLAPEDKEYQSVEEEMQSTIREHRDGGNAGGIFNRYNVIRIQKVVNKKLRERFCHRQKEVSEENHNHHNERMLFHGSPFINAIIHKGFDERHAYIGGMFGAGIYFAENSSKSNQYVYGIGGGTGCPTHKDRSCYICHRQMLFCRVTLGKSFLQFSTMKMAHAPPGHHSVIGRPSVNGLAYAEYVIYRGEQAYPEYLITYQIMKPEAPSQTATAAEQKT
Protocol: as §1, §2, §3

[5] = target: T4, GST-tagged Tnks-1 (1023-1327 aa) (Homo sapiens, UniProt O95271); assay: TNKS1 activity ELISA (autoparsylation); format: biochemical; details: activity ELISA, 1 hour at 30° C; read-out: IC50 TNKS1 ELISA
T4 construct: GST-tagged Tnks-1 (1023-1327 aa, prepared in-house); made in house
T4 sequence (O95271 1023-1327): as above
Protocol: as §4, §5, §6, §7

DLD-1-cancer cells = details: Huang et al., 2009, Nature; cited from earlier work
β-catenin = details: Huang et al., 2009, Nature; by increasing AXIN1 and AXIN2 levels; cited from earlier work

T1 sequence (Q9H2K2 873-1166): as the sequence (Q9H2K2 873-1166) above

O=C(CCc1cccc(Cl)c1Cl)Nc1nncc2ccccc12 [Compound A17, 3-(2,3-dichloro-phenyl)-N-phthalazin-1-yl-propionamide]
IC50 [1]: 0.3 to 3 µM
IC50 [2]: < 0.3 µM
IC50 [3]: 3 to 50 µM
IC50 [4]: < 0.3 µM
IC50 [5]: < 0.3 µM

Oc1nc(-c2ccc(C(F)(F)F)cc2)nc2c1CSCC2 [XAV939]
growth of DLD-1-cancer cells (DLD-1-cancer cells): inhibits growth
Wnt-stimulated accumulation of β-catenin (β-catenin): blocked
